Measured values as given in patent US12185719B2, “Mixture of a folcysteine-based biostimulant and an agrotoxic substance of interest resulting in a quantitatively, qualitatively and time-related result-potentiating action as observed in an agricultural crop of a plant of interest” (priority 2017, dated 2025).

How the values were obtained:
Tetranychus urticae = test: Laboratory test of mite control (Unesp, Jaboticabal); assay type: in vivo; settings: dose 30 g-mL/100 L, lab conditions; for Mite control (%) 1 DFA: 1 day following application; for Mite control (%) 2 DFA: 2 days following application; for Mite control (%) 3 DFA: 3 days following application; for Mite control (%) 4 DFA: 4 days following application; for Mite control (%) 7 DFA: 7 days following application
Excerpt: Application of miticide propargite: application to control mites in lab conditions, performed by Unesp in Jaboticabal, SP. Quantitative (control) results are described in table 3. Assessments were made of the plant treated with miticide propargite against the witness plant (untreated).
Application of miticide abamectin: application to control mites in lab conditions, performed by Unesp in Jaboticabal, SP. Quantitative (control) results are described in Chart 4. Assessments were made of the plant treated with miticide abamectin against the witness plant (untreated).
Example 5: Laboratory Test Performed by Unesp in Jaboticabal, SP to Measure Mite Control, Specifically Control of Tetranychus Urticae with 4 Repetitions and 4 Treatments
The first (treatment 1) is a sample of the plant with no treatment (Witness). The second treatment is a sample treated with Folcysteine alone (treatment 2). The third treatment is a plant sample treated only with the agrotoxic of interest, miticide AI4 (based on propargite), identified as treatment 3, and the fourth treatment used a folcysteine-based biostimulant and an agrotoxic of interest, miticide AI4 (propargite-based), identified as treatment 4, applied under laboratory conditions. See the results in the following table:
Example 6: Laboratory Test Performed by Unesp in Jaboticabal, SP to Measure Mite Control, Specifically Control of Tetranychus Urticae with 4 Repetitions and 4 Treatments
The first (treatment 1) is a sample of the plant with no treatment (Witness). The second is a sample treated with Folcysteine alone (treatment 2). The third treatment is a plant sample treated only with the agrotoxic of interest, miticide AI5, and the fourth treatment uses a blend of folcysteine-based biostimulant and an agrotoxic of interest, miticide AI5 (abamectin-based), identified as treatment 4, applied under laboratory conditions.

corn = assay type: in vivo; settings: dose 1.50 kg-l/ha

Molecule | Mite control (%) 1 DFA (Tetranychus urticae) [%] | Mite control (%) 2 DFA (Tetranychus urticae) [%] | Mite control (%) 3 DFA (Tetranychus urticae) [%] | Mite control (%) 4 DFA (Tetranychus urticae) [%] | Mite control (%) 7 DFA (Tetranychus urticae) [%] | Productivity Index (corn; herbicide alone = 100) | Weight of 1,000 grains Index (corn; herbicide alone = 100) | Productivity (corn; spraying volume 300 l/ha) [b kg/ha] | Weight of 1,000 grains (corn; spraying volume 300 l/ha) [a g]
C#CCOS(=O)OC1CCCCC1Oc1ccc(C(C)(C)C)cc1 (centres unmarked) [Propargite, propargite] | 59 | 63 | 70 | 77 | 98 |  |  |  | 
CP(=O)(O)CCC(N)C(=O)O.N (centres unmarked) [ammonium glufosinate] |  |  |  |  |  | 100 | 100 | 7.142 | 25.89
abamectin | 20 | 20 | 20 | 45 | 62 |  |  |  | 
